US10947242B2, “[1,2,4]triazolo[1,5and#8208;A]pyrimidine compounds as PDE2 inhibitors” (Janssen Pharmaceutica NV, priority 2016, dated 2021)
Where two headings read alike, the source gives them in different places.

Key:
Format in all cases: biochemical
[1] = target: T1, Human recombinant PDE2A (hPDE2A) (Homo sapiens, UniProt O00408); test: In vitro assay PDE2A (SPA, 3H-cGMP hydrolysis); details: for IC50: read-out: hPDE2A pIC50 (converted); for Emax: read-out: hPDE2A Emax
T1 construct: His tag (inferred from metal chelate purification); made in house; host or cells: Sf9 insect cells (baculovirus)
T1 sequence (O00408 whole entry): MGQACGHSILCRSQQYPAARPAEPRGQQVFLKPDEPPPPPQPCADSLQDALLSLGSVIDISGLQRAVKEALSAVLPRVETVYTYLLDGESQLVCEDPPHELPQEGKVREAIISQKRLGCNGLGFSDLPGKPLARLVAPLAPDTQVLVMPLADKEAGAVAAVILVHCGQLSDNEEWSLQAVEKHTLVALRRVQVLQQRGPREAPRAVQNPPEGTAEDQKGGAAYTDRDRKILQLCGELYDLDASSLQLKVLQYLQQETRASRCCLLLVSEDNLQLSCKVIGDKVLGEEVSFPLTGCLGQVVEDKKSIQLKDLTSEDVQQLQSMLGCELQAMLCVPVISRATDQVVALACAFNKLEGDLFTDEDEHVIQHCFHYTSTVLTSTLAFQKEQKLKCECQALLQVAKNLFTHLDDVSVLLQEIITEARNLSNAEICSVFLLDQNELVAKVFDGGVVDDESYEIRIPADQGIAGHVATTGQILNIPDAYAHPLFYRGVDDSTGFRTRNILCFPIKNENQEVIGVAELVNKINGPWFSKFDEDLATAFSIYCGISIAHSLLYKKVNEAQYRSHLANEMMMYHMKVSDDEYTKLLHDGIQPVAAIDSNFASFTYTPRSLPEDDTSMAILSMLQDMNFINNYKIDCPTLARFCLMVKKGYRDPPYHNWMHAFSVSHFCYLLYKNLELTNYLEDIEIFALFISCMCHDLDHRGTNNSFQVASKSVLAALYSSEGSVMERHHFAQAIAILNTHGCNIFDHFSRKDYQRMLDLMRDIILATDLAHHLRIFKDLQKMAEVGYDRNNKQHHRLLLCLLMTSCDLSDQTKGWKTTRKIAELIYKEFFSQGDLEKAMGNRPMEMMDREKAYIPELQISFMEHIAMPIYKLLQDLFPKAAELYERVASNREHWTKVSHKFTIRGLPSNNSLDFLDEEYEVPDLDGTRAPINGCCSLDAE

[2] = target: T2, Human recombinant PDE3A (hPDE3A) (Homo sapiens, UniProt Q14432); test: In vitro assay PDE3A (SPA, 3H-cAMP hydrolysis); details: for IC50: hPDE3B pIC50, read-out: pIC50 (converted); for Emax: read-out: hPDE3B Emax, read-out: Emax;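 on all read-outs here: the method names PDE3A and the table heading PDE3B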
T2 construct: purchased Scottish Biomedical; host or cells: Sf9 insect cells
T2 sequence (Q14432 whole entry): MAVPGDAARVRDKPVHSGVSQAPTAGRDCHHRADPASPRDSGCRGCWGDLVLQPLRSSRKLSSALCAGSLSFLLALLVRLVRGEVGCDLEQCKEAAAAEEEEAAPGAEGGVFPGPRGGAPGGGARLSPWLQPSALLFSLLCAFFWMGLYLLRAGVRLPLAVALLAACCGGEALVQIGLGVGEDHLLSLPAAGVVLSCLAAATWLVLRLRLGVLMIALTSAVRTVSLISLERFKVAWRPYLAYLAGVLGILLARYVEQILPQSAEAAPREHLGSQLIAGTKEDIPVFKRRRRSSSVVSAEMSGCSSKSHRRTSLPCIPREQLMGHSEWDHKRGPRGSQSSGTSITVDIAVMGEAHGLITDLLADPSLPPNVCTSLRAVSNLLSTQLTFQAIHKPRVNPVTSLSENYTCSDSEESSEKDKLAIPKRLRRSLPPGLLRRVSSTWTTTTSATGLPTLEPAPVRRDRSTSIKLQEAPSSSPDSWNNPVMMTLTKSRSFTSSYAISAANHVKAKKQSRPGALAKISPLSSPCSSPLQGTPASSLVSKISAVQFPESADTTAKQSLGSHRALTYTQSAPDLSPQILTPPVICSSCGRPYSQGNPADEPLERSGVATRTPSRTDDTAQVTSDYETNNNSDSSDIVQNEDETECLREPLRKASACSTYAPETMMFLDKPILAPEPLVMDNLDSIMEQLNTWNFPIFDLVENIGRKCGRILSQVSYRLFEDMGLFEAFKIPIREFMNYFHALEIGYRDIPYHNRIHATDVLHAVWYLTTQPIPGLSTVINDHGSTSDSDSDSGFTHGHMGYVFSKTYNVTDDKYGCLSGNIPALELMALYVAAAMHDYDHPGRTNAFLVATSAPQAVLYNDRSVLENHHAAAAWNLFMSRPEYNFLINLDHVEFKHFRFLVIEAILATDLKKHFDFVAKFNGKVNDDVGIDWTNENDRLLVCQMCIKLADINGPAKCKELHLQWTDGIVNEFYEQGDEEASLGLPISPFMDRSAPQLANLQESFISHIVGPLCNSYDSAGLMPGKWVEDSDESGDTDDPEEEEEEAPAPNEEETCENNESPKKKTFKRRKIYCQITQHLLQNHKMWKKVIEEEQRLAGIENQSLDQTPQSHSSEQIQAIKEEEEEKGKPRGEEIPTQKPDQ
Outline: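 Human PDE3A, cloned from brain, as partially purified Sf9 lysate. Substrate 0.4 μM cAMP plus [3H]-cAMP (2.4 μCi/ml final) in 50 mM Tris pH 7.8, 8.3 mM MgCl2, 1.7 mM EGTA, 60 min at room temperature, 1% DMSO final. Hydrolysis read by SPA scintillation counting against no-enzyme blanks and DMSO controls.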

[3] = target: T3, Human recombinant PDE10A (hPDE10A) (Homo sapiens, UniProt Q9Y233); test: In vitro assay PDE10A, human clone (SPA, 3H-cAMP hydrolysis)
T3 construct: His tag (inferred from metal chelate purification); made in house; host or cells: Sf9 insect cells (baculovirus)
T3 sequence (Q9Y233 267-1055): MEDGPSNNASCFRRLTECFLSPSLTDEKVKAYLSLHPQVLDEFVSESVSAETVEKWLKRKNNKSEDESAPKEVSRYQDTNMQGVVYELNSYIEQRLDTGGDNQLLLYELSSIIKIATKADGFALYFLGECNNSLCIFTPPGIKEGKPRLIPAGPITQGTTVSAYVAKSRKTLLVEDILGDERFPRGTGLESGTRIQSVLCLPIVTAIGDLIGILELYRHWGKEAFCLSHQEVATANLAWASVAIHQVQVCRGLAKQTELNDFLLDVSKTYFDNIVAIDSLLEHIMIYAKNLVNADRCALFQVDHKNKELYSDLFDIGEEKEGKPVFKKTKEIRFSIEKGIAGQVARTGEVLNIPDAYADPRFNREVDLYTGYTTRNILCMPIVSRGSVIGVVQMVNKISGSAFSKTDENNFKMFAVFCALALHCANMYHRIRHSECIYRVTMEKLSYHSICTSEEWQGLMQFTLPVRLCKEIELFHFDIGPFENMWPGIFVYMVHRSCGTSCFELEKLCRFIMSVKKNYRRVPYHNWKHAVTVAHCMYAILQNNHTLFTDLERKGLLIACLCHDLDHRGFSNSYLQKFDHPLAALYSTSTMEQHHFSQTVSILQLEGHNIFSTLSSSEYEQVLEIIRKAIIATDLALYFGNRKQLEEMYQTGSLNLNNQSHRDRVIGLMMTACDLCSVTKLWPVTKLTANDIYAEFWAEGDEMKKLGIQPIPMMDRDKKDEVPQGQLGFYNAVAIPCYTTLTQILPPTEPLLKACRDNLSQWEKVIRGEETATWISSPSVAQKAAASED
Outline: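 Human recombinant PDE10A was expressed in Sf9 cells via baculovirus and incubated with compound in 50 mM Tris pH 7.8, 8.3 mM MgCl2, 1.7 mM EGTA. Substrate was 60 nM cAMP plus 0.008 μCi 3H-cAMP for 60 min at room temperature, read by SPA scintillation counting. Controls used 1% DMSO, and blanks omitted enzyme.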

[4] = human recombinant PDE2A, 10 μM cGMP substrate
[5] = human clone (h), default, read-out: hPDE10A2 Emax
[6] = human clone (h), default, read-out: hPDE10A2 pIC50 (converted)
[7] = human clone by default (no (r) mark), read-out: hPDE10A2 or rPDE10A2 Emax
[8] = human clone by default (no (r) mark), read-out: hPDE10A2 or rPDE10A2 pIC50 (converted)

IC50 [1, 4] [µM]	Emax ([1]; human recombinant PDE2A) [%]	Emax [1] [%]	IC50 [1] [µM]	IC50 [2] [µM]	Emax [2] [%]	Emax [3, 5] [%]	IC50 [3, 6] [µM]	Emax [3, 7] [%]	IC50 [3, 8] [µM]	Structure (SMILES)
0.214	99	99	0.214	> 10	31	48	> 10	48	> 10	Cc1cnc(C(=O)N2CC[C@@H](C)[C@H](c3cc(C(F)F)nc4ncnn34)C2)cn1 [Compound 232]
0.575	94	94	0.575	> 10	10	26	> 10	26	> 10	C[C@@H]1CCN(C(=O)c2ncccc2N)C[C@H]1c1cc(C(F)F)nc2ncnn12 [Compound 233]
0.513	96	96	0.513	> 10	22	59	8.71	59	8.71	C[C@@H]1CCN(C(=O)c2ccc(C#N)cn2)C[C@H]1c1cc(C(F)F)nc2ncnn12 [Compound 234]
0.123	98	98	0.123	> 10	32	67	5.5	67	5.5	C[C@@H]1CCN(C(=O)c2ccncc2Cl)C[C@H]1c1cc(C(F)F)nc2ncnn12 [Compound 235]
0.209	100	100	0.209	> 10	18	58	7.76	58	7.76	C[C@@H]1CCN(C(=O)c2ccc(O)nn2)C[C@H]1c1cc(C(F)F)nc2ncnn12 [Compound 236]
0.186	97	97	0.186	> 10	20	51	8.13	51	8.13	C[C@@H]1CCN(C(=O)c2nccnc2Cl)C[C@H]1c1cc(C(F)F)nc2ncnn12 [Compound 237]
0.38	94	94	0.38	> 10	35	48		48		C[C@@H]1CCN(C(=O)c2ncc(C#N)cc2Cl)C[C@H]1c1cc(C(F)F)nc2ncnn12 [Compound 238]
0.191	96	96	0.191	> 10	16	43	> 10	43	> 10	C[C@@H]1CCN(C(=O)c2ccncc2C(F)(F)F)C[C@H]1c1cc(C(F)F)nc2ncnn12 [Compound 239]
1.55	90	90	1.55	> 10	9	51	9.12	51	9.12	C[C@@H]1CCN(C(=O)c2ncc[nH]2)C[C@H]1c1cc(C(F)F)nc2ncnn12 [Compound 240]
0.0209	97	97	0.0209	1.74	88	94	0.269	94	0.269	C[C@@H]1CCN(C(=O)c2cccc(OC(F)(F)F)c2F)C[C@H]1c1cc(C(F)F)nc2ncnn12 [Compound 241]
0.135	97	97	0.135	6.17	67	56	8.13	56	8.13	C[C@@H]1CCN(C(=O)c2ccc(C(F)(F)F)nc2Cl)C[C@H]1c1cc(C(F)F)nc2ncnn12 [Compound 242]
0.132	99	99	0.132	> 10	13	70	3.63	70	3.63	C[C@@H]1CCN(C(=O)c2ccno2)C[C@H]1c1cc(C(F)F)nc2ncnn12 [Compound 243]
		92	0.676	> 10	12	54	9.33	54	9.33	Cc1ncc(C(=O)N2CC[C@@H](C)[C@H](c3cc(C(F)F)nc4ncnn34)C2)cn1 [Compound 244]
		99	0.123	5.89	62	79	2.19	79	2.19	C[C@@H]1CCN(C(=O)c2ccc(F)c(F)c2F)C[C@H]1c1cc(C(F)F)nc2ncnn12 [Compound 245]
		98	0.126	> 10	25	44	> 10	44	> 10	CCCOc1cccnc1C(=O)N1CC[C@@H](C)[C@H](c2cc(C(F)F)nc3ncnn23)C1 [Compound 246]
		98	0.155	2.04	85	77	2.88	77	2.88	COc1c(C(=O)N2CC[C@@H](C)[C@H](c3cc(C(F)F)nc4ncnn34)C2)cccc1C(F)(F)F [Compound 247]
		95	0.347	> 10	2	49	10.5	49	10.5	C[C@@H]1CCN(C(=O)c2ccnnc2)C[C@H]1c1cc(C(F)F)nc2ncnn12 [Compound 248]
		95	0.372	> 10	10	45	> 10	45	> 10	C[C@@H]1CCN(C(=O)c2cncnc2)C[C@H]1c1cc(C(F)F)nc2ncnn12 [Compound 249]
		99	0.132	> 10	28	64	4.9	64	4.9	C[C@@H]1CCN(C(=O)c2cc(F)ccn2)C[C@H]1c1cc(C(F)F)nc2ncnn12 [Compound 250]
		98	0.282	> 10	17	53	8.71	53	8.71	C[C@@H]1CCN(C(=O)c2ccc(F)cn2)C[C@H]1c1cc(C(F)F)nc2ncnn12 [Compound 251]
		96	0.708	> 10	17	66	6.76	66	6.76	Cc1nc(C(=O)N2CC[C@@H](C)[C@H](c3cc(C(F)F)nc4ncnn34)C2)c(C)o1 [Compound 252]
		95	0.457	> 10	17	39	> 10	39	> 10	C[C@@H]1CCN(C(=O)c2ncccc2C(F)(F)F)C[C@H]1c1cc(C(F)F)nc2ncnn12 [Compound 253]
		99	0.107	> 10	25	70	3.8	70	3.8	C[C@@H]1CCN(C(=O)c2ccc(F)nc2)C[C@H]1c1cc(C(F)F)nc2ncnn12 [Compound 254]
		95	0.269	> 10	28	58	7.76	58	7.76	C[C@@H]1CCN(C(=O)c2cnc(CF)cn2)C[C@H]1c1cc(C(F)F)nc2ncnn12 [Compound 255]
		97	0.324	> 10	12	48		48		C[C@@H]1CCN(C(=O)c2ccncn2)C[C@H]1c1cc(C(F)F)nc2ncnn12 [Compound 256]
		95	0.263	> 10	15	45	> 10	45	> 10	C[C@@H]1CCN(C(=O)c2cnccn2)C[C@H]1c1cc(C(F)F)nc2ncnn12 [Compound 257]
		99	0.151	1.55	89	90	1.26	90	1.26	C[C@@H]1CCN(C(=O)c2cc(C(C)(C)C)on2)C[C@H]1c1cc(C(F)F)nc2ncnn12 [Compound 258]
